Assay results published in patent US10266537B2, “3-acetylenyl-pyrazole-pyrimidine derivative, and preparation method therefor and uses thereof” (Si Chuan University, priority 2015, dated 2019).
pIC50: −log10 of the molar value. Values belong to the molecule of their own block, whether it stands above or below them.

Experiments:
Hela = assay: Cell proliferation inhibition assay (MTT); type: cell-based; details: Homo sapiens, 72 hours, read-out: Proliferation inhibitory activity IC50
MM.1S = assay: Cell proliferation inhibition assay (MTT); type: cell-based; details: Homo sapiens, MM1.S, 72 hours, read-out: Proliferation inhibitory activity IC50
Flt3(h) = Flt3(h) (Homo sapiens (Human), UniProt P36888); assay: Kinase inhibition assay (KinaseProfiler, 33P-ATP); type: biochemical; details: 10 μM, read-out: The percentage of the remaining active protein
ErbB4 = ErbB4 (Homo sapiens (Human), UniProt Q15303); assay: Kinase inhibition assay (KinaseProfiler, 33P-ATP); type: biochemical; details: ErbB4(h), read-out: The percentage of the remaining active protein
U251 = assay: Cell proliferation inhibition assay (MTT); type: cell-based; details: Homo sapiens, U-251, 72 hours, read-out: Proliferation inhibitory activity IC50
MDA-MB-415 = assay: Cell proliferation inhibition assay (MTT); type: cell-based; details: Homo sapiens, 72 hours, read-out: Proliferation inhibitory activity IC50
PC-9 = assay: Cell proliferation inhibition assay (MTT); type: cell-based; details: Homo sapiens, 72 hours, read-out: Proliferation inhibitory activity IC50
BTK(R28H)(h) = BTK(R28H)(h) (Homo sapiens (Human), UniProt Q06187, R28H); assay: Kinase inhibition assay (KinaseProfiler, 33P-ATP); type: biochemical; details: read-out: The percentage of the remaining active protein
CaMKIδ(h) = CaMKIδ(h) (Homo sapiens (Human), UniProt Q8IU85); assay: Kinase inhibition assay (KinaseProfiler, 33P-ATP); type: biochemical; details: read-out: The percentage of the remaining active protein
CaMKK2(h) = CaMKK2(h) (Homo sapiens (Human), UniProt Q96RR4); assay: Kinase inhibition assay (KinaseProfiler, 33P-ATP); type: biochemical; details: read-out: The percentage of the remaining active protein
CDK1/cyclinB(h) = CDK1/cyclinB(h) (Homo sapiens (Human), UniProt P06493); assay: Kinase inhibition assay (KinaseProfiler, 33P-ATP); type: biochemical; details: read-out: The percentage of the remaining active protein
CDK9/cyclin T1(h) = CDK9/cyclin T1(h) (Homo sapiens (Human), UniProt P50750); assay: Kinase inhibition assay (KinaseProfiler, 33P-ATP); type: biochemical; details: read-out: The percentage of the remaining active protein
CK1γ2(h) = CK1γ2(h) (Homo sapiens (Human), UniProt P78368); assay: Kinase inhibition assay (KinaseProfiler, 33P-ATP); type: biochemical; details: read-out: The percentage of the remaining active protein
DAPK2(h) = DAPK2(h) (Homo sapiens (Human), UniProt Q9UIK4); assay: Kinase inhibition assay (KinaseProfiler, 33P-ATP); type: biochemical; details: read-out: The percentage of the remaining active protein
Fms(Y969C)(h) = Fms(Y969C)(h) (Homo sapiens (Human), UniProt P07333, Y969C); assay: Kinase inhibition assay (KinaseProfiler, 33P-ATP); type: biochemical; details: read-out: The percentage of the remaining active protein
Haspin(h) = Haspin(h) (Homo sapiens (Human), UniProt Q8TF76); assay: Kinase inhibition assay (KinaseProfiler, 33P-ATP); type: biochemical; details: read-out: The percentage of the remaining active protein
Hck(h) activated = Hck(h) activated (Homo sapiens (Human), UniProt P08631); assay: Kinase inhibition assay (KinaseProfiler, 33P-ATP); type: biochemical; details: read-out: The percentage of the remaining active protein
LOK(h) = LOK(h) (Homo sapiens (Human), UniProt O94804); assay: Kinase inhibition assay (KinaseProfiler, 33P-ATP); type: biochemical; details: read-out: The percentage of the remaining active protein
MAPK2(h) = MAPK2(h) (Homo sapiens (Human), UniProt P28482); assay: Kinase inhibition assay (KinaseProfiler, 33P-ATP); type: biochemical; details: read-out: The percentage of the remaining active protein
MAPK2(m) = MAPK2(m) (Mus musculus (Mouse), UniProt P63085); assay: Kinase inhibition assay (KinaseProfiler, 33P-ATP); type: biochemical; details: read-out: The percentage of the remaining active protein
MELK(h) = MELK(h) (Homo sapiens (Human), UniProt Q14680); assay: Kinase inhibition assay (KinaseProfiler, 33P-ATP); type: biochemical; details: read-out: The percentage of the remaining active protein
Met(D1246N)(h) = Met(D1246N)(h) (Homo sapiens (Human), UniProt P08581, D1246N); assay: Kinase inhibition assay (KinaseProfiler, 33P-ATP); type: biochemical; details: read-out: The percentage of the remaining active protein
MuSK(h) = MuSK(h) (Homo sapiens (Human), UniProt O15146); assay: Kinase inhibition assay (KinaseProfiler, 33P-ATP); type: biochemical; details: read-out: The percentage of the remaining active protein
NEK3(h) = NEK3(h) (Homo sapiens (Human), UniProt P51956); assay: Kinase inhibition assay (KinaseProfiler, 33P-ATP); type: biochemical; details: read-out: The percentage of the remaining active protein
NEK9(h) = NEK9(h) (Homo sapiens (Human), UniProt Q8TD19); assay: Kinase inhibition assay (KinaseProfiler, 33P-ATP); type: biochemical; details: read-out: The percentage of the remaining active protein
NEK11(h) = NEK11(h) (Homo sapiens (Human), UniProt Q8NG66); assay: Kinase inhibition assay (KinaseProfiler, 33P-ATP); type: biochemical; details: read-out: The percentage of the remaining active protein
PAK4(h) = PAK4(h) (Homo sapiens (Human), UniProt O96013); assay: Kinase inhibition assay (KinaseProfiler, 33P-ATP); type: biochemical; details: read-out: The percentage of the remaining active protein
PEK(h) = PEK(h) (Homo sapiens (Human), UniProt Q9NZJ5); assay: Kinase inhibition assay (KinaseProfiler, 33P-ATP); type: biochemical; details: read-out: The percentage of the remaining active protein
Pim-3(h) = Pim-3(h) (Homo sapiens (Human), UniProt Q86V86); assay: Kinase inhibition assay (KinaseProfiler, 33P-ATP); type: biochemical; details: read-out: The percentage of the remaining active protein
PKG1α(h) = PKG1α(h) (Homo sapiens (Human), UniProt Q13976); assay: Kinase inhibition assay (KinaseProfiler, 33P-ATP); type: biochemical; details: read-out: The percentage of the remaining active protein
PKR(h) = PKR(h) (Homo sapiens (Human), UniProt P19525); assay: Kinase inhibition assay (KinaseProfiler, 33P-ATP); type: biochemical; details: read-out: The percentage of the remaining active protein
Rsk1(r) = Rsk1(r) (Rattus norvegicus (Rat), UniProt Q63531); assay: Kinase inhibition assay (KinaseProfiler, 33P-ATP); type: biochemical; details: read-out: The percentage of the remaining active protein
SAPK3(h) = SAPK3(h) (Homo sapiens (Human), UniProt P53778); assay: Kinase inhibition assay (KinaseProfiler, 33P-ATP); type: biochemical; details: read-out: The percentage of the remaining active protein
SGK3(h) = SGK3(h) (Homo sapiens (Human), UniProt Q96BR1); assay: Kinase inhibition assay (KinaseProfiler, 33P-ATP); type: biochemical; details: read-out: The percentage of the remaining active protein
SIK(h) = SIK(h) (Homo sapiens (Human), UniProt P57059); assay: Kinase inhibition assay (KinaseProfiler, 33P-ATP); type: biochemical; details: read-out: The percentage of the remaining active protein
Snk(h) = Snk(h) (Homo sapiens (Human), UniProt Q9NYY3); assay: Kinase inhibition assay (KinaseProfiler, 33P-ATP); type: biochemical; details: read-out: The percentage of the remaining active protein
VRK2(h) = VRK2(h) (Homo sapiens (Human), UniProt Q86Y07); assay: Kinase inhibition assay (KinaseProfiler, 33P-ATP); type: biochemical; details: read-out: The percentage of the remaining active protein

Sequence of LOK(h) (O94804 whole entry): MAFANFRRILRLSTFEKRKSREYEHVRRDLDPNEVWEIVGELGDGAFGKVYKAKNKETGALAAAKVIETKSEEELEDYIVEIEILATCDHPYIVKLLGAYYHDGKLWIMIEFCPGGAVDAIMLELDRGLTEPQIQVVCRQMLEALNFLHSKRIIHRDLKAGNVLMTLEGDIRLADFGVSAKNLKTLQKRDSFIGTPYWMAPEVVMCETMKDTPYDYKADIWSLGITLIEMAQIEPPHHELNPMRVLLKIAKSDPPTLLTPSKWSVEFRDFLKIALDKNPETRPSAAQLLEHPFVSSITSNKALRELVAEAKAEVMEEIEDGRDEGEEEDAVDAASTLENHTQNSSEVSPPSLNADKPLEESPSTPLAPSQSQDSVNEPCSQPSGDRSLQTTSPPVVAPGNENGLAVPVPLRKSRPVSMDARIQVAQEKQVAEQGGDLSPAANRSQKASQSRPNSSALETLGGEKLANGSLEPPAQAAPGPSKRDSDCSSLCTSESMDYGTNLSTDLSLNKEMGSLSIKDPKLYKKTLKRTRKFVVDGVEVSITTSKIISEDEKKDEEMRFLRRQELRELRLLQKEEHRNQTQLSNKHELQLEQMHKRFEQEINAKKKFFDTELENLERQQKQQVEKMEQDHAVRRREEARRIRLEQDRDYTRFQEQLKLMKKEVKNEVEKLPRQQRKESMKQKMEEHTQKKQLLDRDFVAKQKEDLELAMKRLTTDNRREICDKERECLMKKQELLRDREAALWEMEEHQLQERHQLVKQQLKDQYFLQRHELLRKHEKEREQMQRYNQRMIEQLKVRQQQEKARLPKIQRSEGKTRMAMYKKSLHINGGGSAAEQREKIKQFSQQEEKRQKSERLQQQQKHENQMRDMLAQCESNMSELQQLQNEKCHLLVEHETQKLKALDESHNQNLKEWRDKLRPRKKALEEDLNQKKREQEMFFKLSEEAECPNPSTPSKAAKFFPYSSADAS
Sequence of PKR(h) (P19525 whole entry): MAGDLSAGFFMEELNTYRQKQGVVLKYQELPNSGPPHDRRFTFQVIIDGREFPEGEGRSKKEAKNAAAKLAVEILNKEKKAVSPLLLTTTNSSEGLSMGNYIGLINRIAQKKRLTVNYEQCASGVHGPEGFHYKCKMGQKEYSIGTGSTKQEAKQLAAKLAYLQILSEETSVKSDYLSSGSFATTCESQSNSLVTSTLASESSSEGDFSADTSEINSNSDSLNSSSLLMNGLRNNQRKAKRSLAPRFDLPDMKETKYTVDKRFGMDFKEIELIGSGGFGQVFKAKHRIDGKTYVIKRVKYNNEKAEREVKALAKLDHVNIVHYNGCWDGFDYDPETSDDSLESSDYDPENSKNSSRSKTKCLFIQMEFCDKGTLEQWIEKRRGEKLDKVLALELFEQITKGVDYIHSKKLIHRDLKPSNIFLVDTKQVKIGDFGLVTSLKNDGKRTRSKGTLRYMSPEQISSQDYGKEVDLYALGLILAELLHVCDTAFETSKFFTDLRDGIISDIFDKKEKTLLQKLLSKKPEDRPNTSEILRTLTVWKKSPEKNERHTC
Sequence of PKG1α(h) (Q13976 whole entry): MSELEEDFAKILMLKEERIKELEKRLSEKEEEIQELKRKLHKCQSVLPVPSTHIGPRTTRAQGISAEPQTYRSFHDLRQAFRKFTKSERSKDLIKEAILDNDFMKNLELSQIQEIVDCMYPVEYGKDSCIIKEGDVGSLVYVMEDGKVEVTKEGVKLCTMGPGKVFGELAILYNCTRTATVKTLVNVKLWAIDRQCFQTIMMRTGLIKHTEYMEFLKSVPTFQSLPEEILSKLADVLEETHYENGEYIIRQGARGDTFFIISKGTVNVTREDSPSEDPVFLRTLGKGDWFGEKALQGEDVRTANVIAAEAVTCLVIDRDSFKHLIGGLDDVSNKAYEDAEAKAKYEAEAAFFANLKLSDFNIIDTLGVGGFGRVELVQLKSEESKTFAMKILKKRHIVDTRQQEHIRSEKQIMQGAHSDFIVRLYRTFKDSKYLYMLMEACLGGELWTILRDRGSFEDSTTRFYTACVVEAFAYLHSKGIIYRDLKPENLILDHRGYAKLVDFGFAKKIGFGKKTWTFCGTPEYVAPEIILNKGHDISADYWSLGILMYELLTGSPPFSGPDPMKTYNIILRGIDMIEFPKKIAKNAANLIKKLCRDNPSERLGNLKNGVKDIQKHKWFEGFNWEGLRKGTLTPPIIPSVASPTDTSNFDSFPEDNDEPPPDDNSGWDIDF
Sequence of MuSK(h) (O15146 24-869): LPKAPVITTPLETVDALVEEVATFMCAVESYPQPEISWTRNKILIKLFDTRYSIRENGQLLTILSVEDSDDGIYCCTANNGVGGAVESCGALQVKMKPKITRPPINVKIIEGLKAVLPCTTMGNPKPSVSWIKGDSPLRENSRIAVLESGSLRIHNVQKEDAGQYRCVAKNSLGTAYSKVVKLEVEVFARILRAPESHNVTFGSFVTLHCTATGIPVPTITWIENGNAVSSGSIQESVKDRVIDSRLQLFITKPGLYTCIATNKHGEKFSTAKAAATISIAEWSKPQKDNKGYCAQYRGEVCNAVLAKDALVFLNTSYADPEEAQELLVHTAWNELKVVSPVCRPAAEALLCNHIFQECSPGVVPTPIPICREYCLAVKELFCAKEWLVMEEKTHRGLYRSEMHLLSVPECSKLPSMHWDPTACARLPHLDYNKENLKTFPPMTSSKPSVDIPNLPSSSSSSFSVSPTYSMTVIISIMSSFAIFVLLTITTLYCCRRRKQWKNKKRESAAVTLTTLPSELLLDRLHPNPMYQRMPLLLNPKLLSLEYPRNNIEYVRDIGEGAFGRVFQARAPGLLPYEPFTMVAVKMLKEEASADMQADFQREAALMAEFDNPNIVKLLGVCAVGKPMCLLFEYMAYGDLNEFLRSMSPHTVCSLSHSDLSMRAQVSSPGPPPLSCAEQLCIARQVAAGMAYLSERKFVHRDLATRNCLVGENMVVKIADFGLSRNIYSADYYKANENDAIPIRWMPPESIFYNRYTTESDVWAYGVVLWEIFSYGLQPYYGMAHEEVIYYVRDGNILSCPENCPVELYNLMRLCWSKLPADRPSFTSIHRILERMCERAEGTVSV
Sequence of SGK3(h) (Q96BR1 whole entry): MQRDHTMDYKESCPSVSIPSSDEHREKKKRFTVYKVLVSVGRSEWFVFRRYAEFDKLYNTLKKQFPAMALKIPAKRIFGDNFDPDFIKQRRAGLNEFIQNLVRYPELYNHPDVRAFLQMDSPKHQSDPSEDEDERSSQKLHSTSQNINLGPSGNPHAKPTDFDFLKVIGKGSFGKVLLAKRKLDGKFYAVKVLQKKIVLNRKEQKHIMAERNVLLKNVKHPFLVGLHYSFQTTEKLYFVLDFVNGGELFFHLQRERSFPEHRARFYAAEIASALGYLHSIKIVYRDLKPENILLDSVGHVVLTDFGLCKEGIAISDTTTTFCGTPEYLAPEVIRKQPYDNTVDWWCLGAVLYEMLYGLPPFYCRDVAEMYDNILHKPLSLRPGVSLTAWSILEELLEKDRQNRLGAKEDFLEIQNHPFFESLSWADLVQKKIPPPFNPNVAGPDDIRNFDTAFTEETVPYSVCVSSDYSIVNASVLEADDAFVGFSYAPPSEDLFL
Sequence of NEK9(h) (Q8TD19 whole entry): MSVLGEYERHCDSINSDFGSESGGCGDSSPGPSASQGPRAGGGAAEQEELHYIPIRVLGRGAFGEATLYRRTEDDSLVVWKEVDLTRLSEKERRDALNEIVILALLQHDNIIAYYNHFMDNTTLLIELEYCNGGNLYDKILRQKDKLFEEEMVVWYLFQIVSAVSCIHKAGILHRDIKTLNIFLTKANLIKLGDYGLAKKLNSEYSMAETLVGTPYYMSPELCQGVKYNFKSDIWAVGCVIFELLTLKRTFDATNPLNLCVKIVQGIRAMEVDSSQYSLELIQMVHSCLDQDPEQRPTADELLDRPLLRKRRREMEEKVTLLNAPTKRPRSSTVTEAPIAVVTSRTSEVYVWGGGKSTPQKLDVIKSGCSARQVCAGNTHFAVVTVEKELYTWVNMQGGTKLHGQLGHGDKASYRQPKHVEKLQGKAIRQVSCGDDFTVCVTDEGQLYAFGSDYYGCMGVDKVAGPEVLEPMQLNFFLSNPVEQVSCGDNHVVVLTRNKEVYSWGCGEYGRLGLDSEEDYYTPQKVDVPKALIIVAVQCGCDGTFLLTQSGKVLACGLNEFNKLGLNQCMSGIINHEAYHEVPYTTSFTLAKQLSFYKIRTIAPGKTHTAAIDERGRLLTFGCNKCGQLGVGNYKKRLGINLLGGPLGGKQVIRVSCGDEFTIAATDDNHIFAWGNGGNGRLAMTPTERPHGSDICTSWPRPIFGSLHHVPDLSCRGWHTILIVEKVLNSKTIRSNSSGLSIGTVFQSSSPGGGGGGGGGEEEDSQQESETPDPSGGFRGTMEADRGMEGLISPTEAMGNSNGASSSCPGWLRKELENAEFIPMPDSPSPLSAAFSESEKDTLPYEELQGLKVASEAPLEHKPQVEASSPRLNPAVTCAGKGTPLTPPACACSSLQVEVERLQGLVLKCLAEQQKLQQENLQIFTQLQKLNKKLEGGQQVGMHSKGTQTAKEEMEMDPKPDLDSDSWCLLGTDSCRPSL

pIC50 (Hela): 5.14
pIC50 (MM.1S): 5.62
SMILES: Cc1ccc(NC(=O)c2cccc(C(F)(F)F)c2)cc1C#Cc1nn(C2CCN(C)CC2)c2ncnc(N)c12 [Compound 31]

remaining activity at 10 µM (Flt3(h)): 73%
remaining activity at 10 µM (ErbB4): -3%
pIC50 (U251): 7.00
pIC50 (MDA-MB-415): ~5.00
pIC50 (PC-9): 6.52 to 7.00
remaining activity at 10 µM (BTK(R28H)(h)): 71%
remaining activity at 10 µM (CaMKIδ(h)): 92%
remaining activity at 10 µM (CaMKK2(h)): 55%
remaining activity at 10 µM (CDK1/cyclinB(h)): 104%
remaining activity at 10 µM (CDK9/cyclin T1(h)): 113%
remaining activity at 10 µM (CK1γ2(h)): 114%
remaining activity at 10 µM (DAPK2(h)): 95%
remaining activity at 10 µM (Fms(Y969C)(h)): 13%
remaining activity at 10 µM (Haspin(h)): 93%
remaining activity at 10 µM (Hck(h) activated): -1%
remaining activity at 10 µM (LOK(h)): 16%
remaining activity at 10 µM (MAPK2(h)): 108%
remaining activity at 10 µM (MAPK2(m)): 101%
remaining activity at 10 µM (MELK(h)): 23%
remaining activity at 10 µM (Met(D1246N)(h)): 103%
remaining activity at 10 µM (MuSK(h)): 70%
remaining activity at 10 µM (NEK3(h)): 102%
remaining activity at 10 µM (NEK11(h)): 50%
remaining activity at 10 µM (PAK4(h)): 88%
remaining activity at 10 µM (PEK(h)): 39%
remaining activity at 10 µM (Pim-3(h)): 99%
remaining activity at 10 µM (PKG1α(h)): 118%
remaining activity at 10 µM (PKR(h)): 75%
remaining activity at 10 µM (Rsk1(r)): 20%
remaining activity at 10 µM (SAPK3(h)): 68%
remaining activity at 10 µM (SGK3(h)): 98%
remaining activity at 10 µM (SIK(h)): 7%
remaining activity at 10 µM (Snk(h)): 109%
remaining activity at 10 µM (VRK2(h)): 85%
SMILES: Cc1ccc(NC(=O)c2ccc(C)c(C(F)(F)F)c2)cc1C#Cc1nn([C@H]2CC[C@H](O)CC2)c2ncnc(N)c12 [Compound 93]
remaining activity at 10 µM (NEK9(h)): 59%
